{"source": "paper PMC5500904", "about": "(Clinical cancer research : an official journal of the …, 2016)", "key": {"clinical": {"assay": "clinical", "settings": "human, in vivo; for Cmax: 150 mg; for AUC(0-t): AUC0–last"}, "[1]": {"system": "patients with advanced solid tumors", "settings": "in vivo"}, "[2]": {"settings": "in vivo"}, "[3]": {"settings": "cited from earlier work"}, "metastatic CRC": {"system": "metastatic CRC", "settings": "combined with everolimus; cited from earlier work"}, "[4]": {"system": "patients with solid tumors", "settings": "cited from earlier work; for antitumor activity as monotherapy: single agent, solid tumors"}, "adrenocortical carcinoma": {"system": "adrenocortical carcinoma", "settings": "cited from earlier work"}, "IGF1R": {"biological_target": "IGF1R (Homo sapiens, UniProt P08069)", "sequence (P08069 31-1367)": "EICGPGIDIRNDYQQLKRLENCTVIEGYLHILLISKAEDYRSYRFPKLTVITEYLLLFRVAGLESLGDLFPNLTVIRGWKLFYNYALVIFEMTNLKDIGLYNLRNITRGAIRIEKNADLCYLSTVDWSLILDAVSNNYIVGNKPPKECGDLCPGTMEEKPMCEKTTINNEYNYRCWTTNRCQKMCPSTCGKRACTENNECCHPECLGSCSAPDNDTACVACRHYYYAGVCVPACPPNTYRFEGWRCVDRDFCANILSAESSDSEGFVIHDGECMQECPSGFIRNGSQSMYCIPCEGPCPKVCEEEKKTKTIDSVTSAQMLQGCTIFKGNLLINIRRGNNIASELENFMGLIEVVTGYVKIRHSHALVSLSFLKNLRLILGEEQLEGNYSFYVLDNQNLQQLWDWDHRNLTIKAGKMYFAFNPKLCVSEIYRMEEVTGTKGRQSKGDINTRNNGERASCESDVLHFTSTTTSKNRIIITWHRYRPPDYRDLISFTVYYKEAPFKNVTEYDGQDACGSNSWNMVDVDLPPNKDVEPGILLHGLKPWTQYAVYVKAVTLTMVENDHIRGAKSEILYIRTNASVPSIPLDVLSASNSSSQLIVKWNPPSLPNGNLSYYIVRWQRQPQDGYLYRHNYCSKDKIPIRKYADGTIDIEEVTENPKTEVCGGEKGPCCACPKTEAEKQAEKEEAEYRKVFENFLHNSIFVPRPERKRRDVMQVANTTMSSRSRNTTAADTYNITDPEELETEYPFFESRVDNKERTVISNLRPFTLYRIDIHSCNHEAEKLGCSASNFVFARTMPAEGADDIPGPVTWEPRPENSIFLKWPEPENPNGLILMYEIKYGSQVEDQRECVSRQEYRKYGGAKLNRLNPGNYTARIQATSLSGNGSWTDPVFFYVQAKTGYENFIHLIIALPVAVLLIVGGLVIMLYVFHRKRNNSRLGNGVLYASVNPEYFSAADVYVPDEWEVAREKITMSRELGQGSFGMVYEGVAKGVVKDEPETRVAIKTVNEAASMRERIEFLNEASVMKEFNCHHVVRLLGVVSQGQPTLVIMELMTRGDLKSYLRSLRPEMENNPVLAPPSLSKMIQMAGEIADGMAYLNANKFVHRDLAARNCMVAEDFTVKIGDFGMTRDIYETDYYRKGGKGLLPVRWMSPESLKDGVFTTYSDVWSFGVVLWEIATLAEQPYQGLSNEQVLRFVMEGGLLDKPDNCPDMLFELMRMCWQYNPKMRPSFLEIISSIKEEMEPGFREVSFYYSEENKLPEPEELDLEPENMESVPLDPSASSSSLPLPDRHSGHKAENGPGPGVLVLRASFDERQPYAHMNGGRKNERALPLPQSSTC", "assay": "Phosphorylation of IGF1R in PBMCs", "format": "in vivo"}, "advanced NSCLC": {"system": "advanced NSCLC", "settings": "cited from earlier work"}}, "note": "Read-outs that look alike come from different tables or passages of the source.", "data": [{"molecule": "C#Cc1cccc(Nc2ncnc3cc(OCCOC)c(OCCOC)cc23)c1", "note": "[erlotinib, Erlotinib, reference compound]", "values": [{"measurement": "Cmax", "setting": "clinical", "result": 1280, "unit": "ng/mL"}, {"measurement": "AUC(0-t)", "setting": "clinical", "result": 21100, "unit": "ng·h/mL"}, {"measurement": "Tmax", "setting": "clinical", "result": 4.1, "unit": "h"}, {"measurement": "Erlotinib-related AE: diarrhea", "setting": "[1]; human", "result": 26, "unit": "%"}, {"measurement": "Erlotinib-related AE: drug eruption", "setting": "[1]; human", "result": 74, "unit": "%"}, {"measurement": "Erlotinib-related AE: dry skin", "setting": "[1]; human", "result": 26, "unit": "%"}, {"measurement": "Erlotinib-related AE: pruritus", "setting": "[1]; human", "result": 26, "unit": "%"}, {"measurement": "Erlotinib-related AEs", "setting": "[1]; human", "result": "84 % of patients"}, {"measurement": "patients discontinuing for an event related only to the named treatment", "setting": "[1]; human", "result": 3, "unit": "patients"}, {"measurement": "Tmax", "setting": "[2]; human", "result": "4.1 (1.9–8.4) h"}]}, {"molecule": "C[C@]1(O)C[C@@H](c2nc(-c3ccc4ccc(-c5ccccc5)nc4c3)c3c(N)nccn32)C1", "note": "[linsitinib, Linsitinib]", "values": [{"measurement": "plasma level associated with preclinical activity", "setting": "[3]", "result": "~ 1 μmol/L"}, {"measurement": "concentration at 24 h", "setting": "clinical", "result": "≤ 400", "unit": "ng/mL"}, {"measurement": "Cmax", "setting": "clinical", "result": 2580, "unit": "ng/mL"}, {"measurement": "AUC(0-t)", "setting": "clinical", "result": 17900, "unit": "ng·h/mL"}, {"measurement": "Tmax", "setting": "clinical", "result": 3, "unit": "h"}, {"measurement": "clinical activity", "setting": "metastatic CRC", "result": "no evidence of clinical activity"}, {"measurement": "Linsitinib-related hyperglycemia at grade 2", "setting": "[1]; human", "result": 2}, {"measurement": "Linsitinib-related hyperglycemia at grade 3", "setting": "[1]; human", "result": 3, "unit": "cases"}, {"measurement": "Treatment-related SAEs", "setting": "[1]; human", "result": "10 of 40 (25%) patients (%)"}, {"measurement": "linsitinib-related AE: fatigue", "setting": "[1]; human", "result": 12, "unit": "%"}, {"measurement": "linsitinib-related AE: nausea", "setting": "[1]; human", "result": 11, "unit": "%"}, {"measurement": "linsitinib-related AE: prolonged QTc interval", "setting": "[1]; human", "result": 8, "unit": "%"}, {"measurement": "linsitinib-related AE: vomiting", "setting": "[1]; human", "result": 8, "unit": "%"}, {"measurement": "patients discontinuing for an event related only to the named treatment", "setting": "[1]; human", "result": 1, "unit": "patients"}, {"measurement": "thrombocytopenia and neutropenia", "setting": "[1]", "result": "not observed"}, {"measurement": "QTc prolongation versus peak concentrations of linsitinib", "setting": "[4]; another study, 600 mg dose, ref unpublished data", "result": "associated with peak concentrations"}, {"measurement": "half-life", "setting": "[4]", "result": 5, "unit": "h"}, {"measurement": "monotherapy MTD", "setting": "[4]; continuous once daily dosing", "result": 400, "unit": "mg"}, {"measurement": "monotherapy MTD", "setting": "[4]; intermittent dosing", "result": 600, "unit": "mg"}, {"measurement": "antitumor activity as monotherapy", "setting": "[4]", "result": "partial responses (PR) in melanoma and adrenocortical carcinoma"}, {"measurement": "antitumor activity as monotherapy", "setting": "[4]; listed as Linsitinib", "result": "induced partial responses in adrenocortical carcinoma and melanoma"}, {"measurement": "monotherapy RP2D", "setting": "[4]; twice daily, continuous", "result": 150, "unit": "mg"}, {"measurement": "Cmax and AUC from time zero to infinity versus dose", "setting": "[2]", "result": "increased in a dose-proportional manner"}, {"measurement": "drug–drug interaction (pharmacokinetic)", "setting": "[2]", "result": "no significant drug–drug interaction effect"}, {"measurement": "overall survival versus placebo arm", "setting": "adrenocortical carcinoma", "result": "no difference in overall survival"}, {"measurement": "patients with durable PR", "setting": "adrenocortical carcinoma; linsitinib arm", "result": "3 of 90"}, {"measurement": "IGF1R phosphorylation in PBMCs", "setting": "IGF1R; 2 to 24 hours after the first dose, 7 cases, S1–S3", "result": "substantially inhibited"}, {"measurement": "IGF1R phosphorylation in PBMCs", "setting": "IGF1R; later time points, intermittent S1 schedule", "result": "fluctuating receptor inhibition"}, {"measurement": "IGF1R phosphorylation in PBMCs", "setting": "IGF1R; later time points, ≥300 mg linsitinib daily in S2 and S3", "result": "persisting receptor inhibition"}]}, {"molecule": "R1507: IGF1R antibody, evaluated with erlotinib in NSCLC", "values": [{"measurement": "12-week progression-free survival rate", "setting": "advanced NSCLC; R1507 with erlotinib, patients with KRAS-mutant tumors", "result": 36, "unit": "%"}, {"measurement": "progression-free or overall survival versus erlotinib alone", "setting": "advanced NSCLC; R1507 with erlotinib, unselected patients", "result": "no progression-free survival or overall survival advantage"}, {"measurement": "tolerability", "setting": "advanced NSCLC; in vivo", "result": "tolerable"}]}]}
